Results: patent US20100222322A1, “Non-Nucleoside Reverse Transcriptase Inhibitors” (MERCK & CO., INC., priority 2005, published 2010)
Read-outs that look alike come from different tables or passages of the source.

System: HIV replication in T-lymphoid cells
Assay: Spread assay: inhibition of acute HIV infection of T-lymphoid cells
Assay type: cell-based
Settings: read-out: IC95, spread assay (inhibition of HIV replication)
Protocol: An assay for the inhibition of acute HIV infection of T-lymphoid cells (alternatively referred to herein as the “spread assay”) was conducted in accordance with Vacca, J. P. et al., Proc. Natl. Acad. Sci. USA 1994, 91: 4096. […] The compounds of Examples 26, 29, 30, 33-35 and 62 were tested in the spread assay up to 10 micromolar, but specific IC95 values were not obtained; i.e., the IC95 values were greater than 10 micromolar. The compounds of Examples 47 and 61 were not tested.

[1] = Human immunodeficiency virus 1, acute HIV infection of T-lymphoid cells, tested up to 10 micromolar
[2] = Human immunodeficiency virus 1, T-lymphoid

SMILES: NC(=O)c1[nH]c2ccc(Cl)cc2c1S(=O)(=O)NC1CCC1 [Example 3, 5-chloro-3-[(cyclobutylamino)sulfonyl]-1H-indole-2-carboxamide]
- IC95 [1]: < 1000 nM

SMILES: NC(=O)c1[nH]c2ccc(Cl)cc2c1S(=O)(=O)N1CCC1 [Example 7, 3-(azetidin-1-ylsulfonyl)-5-chloro-1H-indole-2-carboxamide]
- IC95 [1]: < 1000 nM

SMILES: COC1CCCN(S(=O)(=O)c2c(C(N)=O)[nH]c3ccc(Br)cc23)C1 (centres unmarked) [Example 20, 5-bromo-3-[(3-methoxypiperidin-1-yl)sulfonyl]-1H-indole-2-carboxamide]
- IC95 [1]: < 1000 nM

SMILES: NC(=O)c1[nH]c2ccc(Br)cc2c1S(=O)(=O)N1CCC(F)C1 (centres unmarked) [Example 22, 5-bromo-3-[(3-fluoropyrrolidin-1-yl)sulfonyl]-1H-indole-2-carboxamide]
- IC95 [1]: < 1000 nM

SMILES: CCCNS(=O)(=O)c1c(C(N)=O)[nH]c2ccc(Br)cc12 [Example 23, 5-bromo-3-[(propylamino)sulfonyl]-1H-indole-2-carboxamide]
- IC95 [1]: < 1000 nM

SMILES: COC(=O)c1[nH]c2ccc(Br)cc2c1S(=O)(=O)N1CCCCC1 [Example 24, methyl 5-bromo-3-(piperidin-1-ylsulfonyl)-1H-indole-2-carboxylate]
- IC95 [1]: < 1000 nM

SMILES: COC(=O)c1[nH]c2ccc(Br)cc2c1S(=O)(=O)N1CCCC1 [Example 25, methyl 5-bromo-3-(pyrrolidin-1-ylsulfonyl)-1H-indole-2-carboxylate]
- IC95 [1]: < 1000 nM

SMILES: COC(=O)c1[nH]c2ccc(Br)cc2c1S(=O)(=O)NC1CCCC1 [Example 26, methyl 5-bromo-3-[(cyclopentylamino)sulfonyl]-1H-indole-2-carboxylate]
- IC95 [2]: > 10000 nM

SMILES: CCOC(=O)c1[nH]c2ccc(Br)cc2c1S(=O)(=O)N1CCCCC1 [Example 27, ethyl 5-bromo-3-(piperidin-1-ylsulfonyl)-1H-indole-2-carboxylate]
- IC95 [2]: 1000 to 10000 nM

SMILES: CCOC(=O)c1[nH]c2ccc(Br)cc2c1S(=O)(=O)NCCOC [Example 28, ethyl 5-bromo-3-{[(2-methoxyethyl)amino]sulfonyl}-1H-indole-2-carboxylate]
- IC95 [2]: < 1000 nM

SMILES: CCOC(=O)c1[nH]c2ccc(Br)cc2c1S(=O)(=O)NC1CCCC1 [Example 29, ethyl 5-bromo-3-[(cyclopentylamino)sulfonyl]-1H-indole-2-carboxylate]
- IC95 [2]: > 10000 nM

SMILES: CCOC(=O)c1[nH]c2ccc(Br)cc2c1S(=O)(=O)N1CCCC1C(F)(F)F (centres unmarked) [Example 30, ethyl 5-bromo-3-{[2-(trifluoromethyl)pyrrolidin-1-yl]sulfonyl}-1H-indole-2-carboxylate]
- IC95 [2]: > 10000 nM

SMILES: O=C(NCCO)c1[nH]c2ccc(Br)cc2c1S(=O)(=O)NC1CC1 [Example 33, 5-bromo-3-[(cyclopropylamino)sulfonyl]-N-(2-hydroxyethyl)-1H-indole-2-carboxamide]
- IC95 [1]: > 10000 nM

SMILES: O=C(NCCO)c1[nH]c2ccc(Br)cc2c1S(=O)(=O)NC1CCCCC1 [Example 34, 5-bromo-3-[(cyclohexylamino)sulfonyl]-N-(2-hydroxyethyl)-1H-indole-2-carboxamide]
- IC95 [1]: > 10000 nM

SMILES: O=C(NCCO)c1[nH]c2ccc(Br)cc2c1S(=O)(=O)NC1CCCC1 [Example 35, 5-bromo-3-[(cyclopentylamino)sulfonyl]-N-(2-hydroxyethyl)-1H-indole-2-carboxamide]
- IC95 [1]: > 10000 nM

SMILES: O=C1CN(S(=O)(=O)c2c(C(=O)NCCO)[nH]c3ccc(Br)cc23)CCN1 [Example 36, 5-bromo-N-(2-hydroxyethyl)-3-[(3-oxopiperazin-1-yl)sulfonyl]-1H-indole-2-carboxamide]
- IC95 [2]: 1000 to 10000 nM

SMILES: NC(=O)c1[nH]c2ccc(Cl)cc2c1S(=O)(=O)N1CCCC1C(F)(F)F (centres unmarked) [Example 40, 5-chloro-3-{[2-(trifluoromethyl)pyrrolidin-1-yl]sulfonyl}-1H-indole-2-carboxamide]
- IC95 [1]: < 1000 nM

SMILES: NC(=O)c1[nH]c2ccc(Cl)cc2c1S(=O)(=O)N1CCCC(F)C1 (centres unmarked) [Example 41, 5-chloro-3-[(3-fluoropiperidin-1-yl)sulfonyl]-1H-indole-2-carboxamide]
- IC95 [1]: < 1000 nM

SMILES: NC(=O)c1[nH]c2ccc(Br)cc2c1S(=O)(=O)N1CCC(F)(F)C1 [Example 42, 5-bromo-3-[(3,3-difluoropyrrolidin-1-yl)sulfonyl]-1H-indole-2-carboxamide]
- IC95 [1]: < 1000 nM

SMILES: NC(=O)c1[nH]c2ccc(Br)cc2c1S(=O)(=O)N1CCC(F)(F)CC1 [Example 43, 5-bromo-3-[(4,4-difluoropiperidin-1-yl)sulfonyl]-1H-indole-2-carboxamide]
- IC95 [1]: < 1000 nM

SMILES: NC(=O)c1[nH]c2ccc(Br)cc2c1S(=O)(=O)NC1CCC1 [Example 44, 5-bromo-3-[(cyclobutylamino)sulfonyl]-1H-indole-2-carboxamide]
- IC95 [1]: < 1000 nM

SMILES: NC(=O)c1[nH]c2ccc(Br)cc2c1S(=O)(=O)N1CCC(F)CC1 [Example 45, 5-bromo-3-[(4-fluoropiperidin-1-yl)sulfonyl]-1H-indole-2-carboxamide]
- IC95 [1]: < 1000 nM

SMILES: NC(=O)c1[nH]c2ccc(Cl)cc2c1S(=O)(=O)N1CCC(F)CC1 [Example 46, 5-chloro-3-[(4-fluoropiperidin-1-yl)sulfonyl]-1H-indole-2-carboxamide]
- IC95 [1]: < 1000 nM

SMILES: O=C(NCCc1cnc[nH]1)c1[nH]c2ccc(Br)cc2c1S(=O)(=O)N1CCCC1 [Example 49, 5-bromo-N-[2-(1H-imidazol-5-yl)ethyl]-3-(pyrrolidin-1-ylsulfonyl)-1H-indole-2-carboxamide]
- IC95 [1]: < 1000 nM

SMILES: O=C(NCc1cccnc1)c1[nH]c2ccc(Br)cc2c1S(=O)(=O)N1CCCC1 [Example 50, 5-bromo-N-(pyridin-3-ylmethyl)-3-(pyrrolidin-1-ylsulfonyl)-1H-indole-2-carboxamide]
- IC95 [1]: < 1000 nM

SMILES: O=C(NCCCn1ccnc1)c1[nH]c2ccc(Br)cc2c1S(=O)(=O)N1CCCC1 [Example 52, 5-bromo-N-[3-(1H-imidazol-1-yl)propyl]-3-(pyrrolidin-1-ylsulfonyl)-1H-indole-2-carboxamide]
- IC95 [1]: < 1000 nM

SMILES: O=C(NCc1ccccn1)c1[nH]c2ccc(Br)cc2c1S(=O)(=O)N1CCCC1 [Example 54, 5-bromo-N-(pyridin-2-ylmethyl)-3-(pyrrolidin-1-ylsulfonyl)-1H-indole-2-carboxamide]
- IC95 [1]: < 1000 nM

SMILES: NS(=O)(=O)c1ccc(CNC(=O)c2[nH]c3ccc(Br)cc3c2S(=O)(=O)N2CCCC2)cc1 [Example 55, N-[4-(aminosulfonyl)benzyl]-5-bromo-3-(pyrrolidin-1-ylsulfonyl)-1H-indole-2-carboxamide]
- IC95 [1]: < 1000 nM

SMILES: COCCNC(=O)c1[nH]c2ccc(Br)cc2c1S(=O)(=O)N1CCCC1 [Example 56, 5-bromo-N-(2-methoxyethyl)-3-(pyrrolidin-1-ylsulfonyl)-1H-indole-2-carboxamide]
- IC95 [1]: < 1000 nM

SMILES: O=C(NCc1cscn1)c1[nH]c2ccc(Br)cc2c1S(=O)(=O)N1CCCC1 [Example 57, 5-bromo-3-(pyrrolidin-1-ylsulfonyl)-N-(1,3-thiazol-4-ylmethyl)-1H-indole-2-carboxamide]
- IC95 [1]: < 1000 nM

SMILES: O=C(NCc1ccon1)c1[nH]c2ccc(Br)cc2c1S(=O)(=O)N1CCCC1 [Example 58, 5-bromo-N-(isoxazol-3-ylmethyl)-3-(pyrrolidin-1-ylsulfonyl)-1H-indole-2-carboxamide]
- IC95 [1]: < 1000 nM

SMILES: CN1CCC(CNC(=O)c2[nH]c3ccc(Br)cc3c2S(=O)(=O)N2CCCC2)C1 (centres unmarked) [Example 60, 5-bromo-N-[(1-methylpyrrolidin-3-yl)methyl]-3-(pyrrolidin-1-ylsulfonyl)-1H-indole-2-carboxamide]
- IC95 [1]: < 1000 nM
